Data as given in PMC3093368 (PLoS Pathogens, 2011).
Entries after “also recorded” stand apart in the source; their conditions may differ. Ends that are not written are not given here.

Key:
[1] = In vitro immunoproteasome digestion of 27mer peptides, MS/MS analysis; type: in vitro ADME; details: immunoproteasomes isolated from T2.27mp cells, 3 nmol 27mer, 1 µg immunoproteasome; for metabolised at 0.5 h, 30 µM: 100 µl 20 mM Hepes/KOH pH 7.8, 2 mM Mg acetate, 2 mM DTT, RP-HPLC ESI MS intensity, 30 min, read-out: substrate degraded after 30 min; for metabolised at 2 h, 30 µM: Hepes/KOH pH 7.8, MS intensity, read-out: substrate degraded after 2 h
Procedure: Immunoproteasomes were isolated from T2.27mp cells (that stably express all three immunosubunits) as previously described. Purified proteasomes were analyzed by SDS-PAGE. The yield was calculated at 90–95%. The 27mer peptides encompassing Q9VF/5D or Q9VF/5N were synthesized using standard Fmoc method on an Applied Biosystems 433A automated synthesizer. The peptides were purified by HPLC and analyzed by mass spectrometry. Three nmol of peptides were digested in vitro using 1 µg of proteasomes (for 0.5, 1, 2, 4, 8 and 18 h) in 100 µl of buffer containing 20 mM Hepes/KOH, pH 7.8, 2 mM magnesium acetate and 2 mM dithiothreitol. Reactions were stopped by the addition of trifluoroacetic acid to a final concentration of 0.3%. The digestions were analyzed, by mass spectrometry (RP-HPLC ESI) and the products were identified by MS/MS.

immunoproteasomes (IP) = test: Immunoproteasomes isolated from T2.27mp cells, in 20 mM Hepes/KOH, pH 7.8, 2 mM magnesium acetate and 2 mM dithiothreitol; details: up to 18 h
immunoproteasome (IP) = test: Immunoproteasomes isolated from T2.27mp cells; 20 mM Hepes/KOH, pH 7.8, 2 mM magnesium acetate, 2 mM dithiothreitol; details: human, up to 18 h
[2] = test system: HIVLAI-infected T1-B7 cells / Q9VF/5D-specific CTLs; test: Mouse CTL recognition of HIV-infected T1-B7 cells after epoxomicin treatment (IFNγ-ELISpot); type: cell-based
Procedure: Mouse CTL lines were derived from splenocytes of peptide immunized HLA-B*07^mα3 transgenic mice. In brief, these mice express HLA-B*0702 heavy chain with a murine α3 domain and their H-2K^b and H-2D^b class Ia genes have been inactivated. Cytolytic activity of splenocyte cultures was first assessed in a^51Cr release assay. Peptide specific CTL lines were stimulated in vitro (5 µg/mL of peptide) and cultured in RPMI 1640 medium supplemented with 10% FCS, 0.5 µM 2-β-mercaptoethanol (Sigma), 100 IU/mL penicillin and 100 µg/mL streptomycin (Gibco-BRL). Ten days later, 2×10^3, 400 and 80 CTLs in triplicates were stimulated by 10^5 HIV-1-infected T1-B7 cells and IFNγ release was detected by ELISpot assay. Cross-reactivity of Q9VF/5D- and Q9VF/5N-specific CTLs was tested in IFNγ-ELISpot and Cr^51-release assays using T1-B7 peptide-loaded cells. Mouse CTL lines specific for the HLA-B*0702-restricted HIV-1 Nef-derived epitope F10LR (Nef 68[…]77; [22]) were used as controls. When stated, HIV-infected T1-B7 cells were treated with epoxomicin (6 h, 1 µg/ml, Calbiochem). To remove residual MHC-peptide complexes, epoxomycin-exposed cells were treated with a citrate-phosphate buffer (pH 3.3) containing 1% BSA and washed twice, prior co-culture with CTLs for an additional 8 h.

MGKSSRREGFQPRSNTHVFSIIRRSHP [Q9VF/5N substrate]
metabolised at 0.5 h, 30 µM [1]: 24% | metabolised at 2 h, 30 µM [1]: 96%

MGKSSRREGFQPRSNTHVFSIIRRSHP
cleaved bond (immunoproteasomes (IP)): F19-S20, 30 min; also recorded: S4-S5; also recorded: F10-Q11, 1 h; also recorded: I22-R23; also recorded: R24-S25; also recorded: N15-T16, major, 30 min | fragment found (immunoproteasome (IP)): Q9VF (Q11-F19), minor

MGKSSRREGFQPRSDTHVFSIIRRSHP [Q9VF/5D substrate]
metabolised at 0.5 h, 30 µM [1]: 24% | metabolised at 2 h, 30 µM [1]: 96%

MGKSSRREGFQPRSDTHVFSIIRRSHP
cleaved bond (immunoproteasomes (IP)): F10-Q11, major; also recorded: F19-S20, major, 30 min; also recorded: I22-R23, major; also recorded: R24-S25, major; also recorded: S14-D15; also recorded: S4-S5; also recorded: R6-R7; also recorded: R23-R24

CC[C@H](C)[C@H](NC(=O)[C@H]([C@@H](C)CC)N(C)C(C)=O)C(=O)N[C@H](C(=O)N[C@@H](CC(C)C)C(=O)[C@@]1(C)CO1)[C@@H](C)O [Epoxomicin, epoxomicin]
effect on activation of Q9VF/5D-specific CTLs by HIVLAI-infected cells ([2]; epoxomicin 1 µg/ml, 6 h at 37°C, citrate-phosphate buffer pH 3.3 wash, 8 h co-culture, IFNγ-ELISpot, representative of three CTL clones): abolished the capacity of HIVLAI-infected cells to activate Q9VF/5D-specific CTLs | effect on MHC-density and presentation of exogenous peptide ([2]; epoxomicin-treated T1-B7 cells, FACS, exogenous peptide 0.1 µg/ml): affected neither MHC-density
